# Results taken from ChEMBL document CHEMBL1201862, “PubChem BioAssay data set” (2004).
#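 48-hour exposure; five concentrations; linearly interpolated endpoints. The concentration for 50% growth inhibition is given as GI50.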 Activity calls are given as the source filed them. Rule as the data show it: active = GI50 up to about 1.1 µM and inactive = higher.
# Legend:
# Assay in all cases: NCI tumour cell line growth inhibition, 48 h
# SK-MEL-5 = system: SK-MEL-5
# ACHN = system: ACHN
# SK-OV-3 = system: SK-OV-3
# A498 = system: A498
# OVCAR-8 = system: OVCAR-8
# 786-0 = system: 786-0
# SW-620 = system: SW-620
# SK-MEL-2 = system: SK-MEL-2
# MDA-MB-231 = system: MDA-MB-231
# NCI-H23 = system: NCI-H23
# M14 = system: M14
# HCT-116 = system: HCT-116
# U-251 = system: U-251
# RXF 393 = system: RXF 393
# Hs-578T = system: Hs-578T
# TK-10 = system: TK-10
# LOX IMVI = system: LOX IMVI
# CAKI-1 = system: CAKI-1
# SNB-75 = system: SNB-75
# SF-539 = system: SF-539
SMILES,GI50 (SK-MEL-5),GI50 (ACHN),GI50 (SK-OV-3),GI50 (A498),GI50 (OVCAR-8),GI50 (786-0),GI50 (SW-620),GI50 (SK-MEL-2),GI50 (MDA-MB-231),GI50 (NCI-H23),GI50 (M14),GI50 (HCT-116),GI50 (U-251),GI50 (RXF 393),GI50 (Hs-578T),GI50 (TK-10),GI50 (LOX IMVI),GI50 (CAKI-1),GI50 (SNB-75),GI50 (SF-539)
COc1ccccc1/N=N/C(=N/NC(=O)c1ccc(C)cc1)c1ccc(N(CCC#N)CCC#N)cc1OC,37.8 µM (inactive),19.6 µM (inactive),37.1 µM (inactive),22.2 µM (inactive),32.5 µM (inactive),31.7 µM (inactive),38.1 µM (inactive),19.8 µM (inactive),24.9 µM (inactive),32.4 µM (inactive),29.4 µM (inactive),25.1 µM (inactive),32.5 µM (inactive),22.9 µM (inactive),56.4 µM (inactive),68.5 µM (inactive),33.4 µM (inactive),52.7 µM (inactive),,
CC[C@@H](C)[C@H](NC(=O)[C@H](Cc1ccccc1)NCC(F)(F)F)C(=O)OC(C)(C)C,> 100 µM (inactive),> 100 µM (inactive),> 100 µM (inactive),> 100 µM (inactive),> 100 µM (inactive),> 100 µM (inactive),> 100 µM (inactive),,> 100 µM (inactive),> 100 µM (inactive),> 100 µM (inactive),> 100 µM (inactive),> 100 µM (inactive),42 µM (inactive),> 100 µM (inactive),> 100 µM (inactive),> 100 µM (inactive),> 100 µM (inactive),,
CSc1nc(C)c(CCOC(C)=O)c(Cl)n1,> 100 µM (inactive),> 100 µM (inactive),> 100 µM (inactive),48 µM (inactive),> 100 µM (inactive),> 100 µM (inactive),> 100 µM (inactive),,> 100 µM (inactive),> 100 µM (inactive),> 100 µM (inactive),> 100 µM (inactive),> 100 µM (inactive),> 100 µM (inactive),> 100 µM (inactive),> 100 µM (inactive),> 100 µM (inactive),> 100 µM (inactive),> 100 µM (inactive),> 100 µM (inactive)
Nc1ccc(S(=O)(=O)C23CC4CC(CC(C4)C2)C3)cc1,4.49 µM (inactive),> 100 µM (inactive),> 100 µM (inactive),23.1 µM (inactive),> 100 µM (inactive),> 100 µM (inactive),> 100 µM (inactive),> 100 µM (inactive),> 100 µM (inactive),> 100 µM (inactive),> 100 µM (inactive),> 100 µM (inactive),> 100 µM (inactive),30.1 µM (inactive),> 100 µM (inactive),> 100 µM (inactive),70.8 µM (inactive),> 100 µM (inactive),,> 100 µM (inactive)
CO/C=C(/C(=O)OC)c1ccccc1Oc1c(F)c(F)c(F)c(F)c1F,20.9 µM (inactive),50.4 µM (inactive),47.9 µM (inactive),36.7 µM (inactive),80.5 µM (inactive),33.7 µM (inactive),,24.2 µM (inactive),29.5 µM (inactive),37.7 µM (inactive),35.3 µM (inactive),22.9 µM (inactive),44.7 µM (inactive),20.7 µM (inactive),25.8 µM (inactive),28.5 µM (inactive),32.4 µM (inactive),12.8 µM (inactive),,56 µM (inactive)
Sc1nc(S)nc(Oc2ccc(Cl)c(Cl)c2)n1,24.5 µM (inactive),48.3 µM (inactive),> 51.5 µM (inactive),24 µM (inactive),32.5 µM (inactive),> 61.2 µM (inactive),> 61.4 µM (inactive),,39.4 µM (inactive),27.2 µM (inactive),43.5 µM (inactive),30.6 µM (inactive),44.8 µM (inactive),< 0.01 µM (active),89.1 µM (inactive),> 66.1 µM (inactive),18.1 µM (inactive),46.3 µM (inactive),30.3 µM (inactive),> 44.8 µM (inactive)
CC(C)(C)OC(=O)C1=C(C(=O)OC(C)(C)C)SC2(S1)C(C(=O)OC(C)(C)C)=C(C(=O)OC(C)(C)C)Sc1c2ssc1=O,> 100 µM (inactive),44.1 µM (inactive),> 100 µM (inactive),> 100 µM (inactive),49.9 µM (inactive),,26.4 µM (inactive),72.9 µM (inactive),83.8 µM (inactive),95.1 µM (inactive),95.7 µM (inactive),47.3 µM (inactive),49.1 µM (inactive),45.2 µM (inactive),75.5 µM (inactive),> 100 µM (inactive),34.7 µM (inactive),83.8 µM (inactive),,
CC(=O)OC(OC(C)=O)c1ccc2ccc3cccc4ccc1c2c34,18.2 µM (inactive),26.2 µM (inactive),23 µM (inactive),1.48 µM (inactive),12.8 µM (inactive),36.1 µM (inactive),,,10.1 µM (inactive),18.7 µM (inactive),24.8 µM (inactive),22.4 µM (inactive),14.3 µM (inactive),11.3 µM (inactive),16.1 µM (inactive),9.25 µM (inactive),16 µM (inactive),9.04 µM (inactive),15.7 µM (inactive),38.7 µM (inactive)
O=[N+]([O-])c1ccc(C(O)(C#CCN2CCCC2)c2ccccc2)cc1 (centres undefined),21 µM (inactive),56.2 µM (inactive),80.7 µM (inactive),23.3 µM (inactive),36.6 µM (inactive),39.4 µM (inactive),98.9 µM (inactive),24.5 µM (inactive),43 µM (inactive),96.8 µM (inactive),17.5 µM (inactive),46.6 µM (inactive),38.9 µM (inactive),57.9 µM (inactive),28.9 µM (inactive),52.1 µM (inactive),16.2 µM (inactive),,30.1 µM (inactive),82 µM (inactive)
CC1CN(c2cc3c(cc2F)c(=O)c(C(=O)O)cn3-c2ccc(F)cn2)CC(C)N1 (centres undefined),,,> 100 µM (inactive),> 100 µM (inactive),> 100 µM (inactive),> 100 µM (inactive),> 100 µM (inactive),,> 100 µM (inactive),> 100 µM (inactive),> 100 µM (inactive),> 100 µM (inactive),> 100 µM (inactive),> 100 µM (inactive),> 100 µM (inactive),> 100 µM (inactive),> 100 µM (inactive),> 100 µM (inactive),> 100 µM (inactive),> 100 µM (inactive)
O=C(O)Cc1cccc2c1OC(c1ccccc1)C(Cl)(C(=O)c1ccccc1)C2=O (centres undefined),15.3 µM (inactive),14 µM (inactive),> 100 µM (inactive),,22.2 µM (inactive),12.9 µM (inactive),9.33 µM (inactive),,18.7 µM (inactive),16.1 µM (inactive),,15.1 µM (inactive),17.2 µM (inactive),> 10 µM (inactive),35 µM (inactive),21.8 µM (inactive),14.4 µM (inactive),17.8 µM (inactive),19.1 µM (inactive),31.6 µM (inactive)
C=C1C(=O)O[C@H]2C[C@@]3(COC(C)=O)C=COC=C(COC(=O)C(C)C)C3CC12 (some centres undefined),> 100 µM (inactive),> 100 µM (inactive),,,53.3 µM (inactive),> 100 µM (inactive),46.1 µM (inactive),,61.9 µM (inactive),> 100 µM (inactive),,37.5 µM (inactive),29.4 µM (inactive),67.6 µM (inactive),> 100 µM (inactive),> 100 µM (inactive),45.2 µM (inactive),65.2 µM (inactive),12.2 µM (inactive),> 100 µM (inactive)
O=C(N/N=C\c1ccc2ccccc2c1)Nc1ccc([N+](=O)[O-])cc1,22.7 µM (inactive),24.6 µM (inactive),18.9 µM (inactive),,23 µM (inactive),24 µM (inactive),32.7 µM (inactive),24 µM (inactive),32.2 µM (inactive),22.2 µM (inactive),32.2 µM (inactive),21.1 µM (inactive),29.3 µM (inactive),26.4 µM (inactive),32.9 µM (inactive),18.9 µM (inactive),30.5 µM (inactive),45 µM (inactive),42.4 µM (inactive),19.5 µM (inactive)
COc1ccc(-c2cc(O)c3cc(OC)c(OC)cc3n2)cc1OC,> 100 µM (inactive),> 100 µM (inactive),> 100 µM (inactive),> 100 µM (inactive),> 100 µM (inactive),> 100 µM (inactive),> 100 µM (inactive),,> 100 µM (inactive),> 100 µM (inactive),> 100 µM (inactive),> 100 µM (inactive),> 100 µM (inactive),67.3 µM (inactive),69.8 µM (inactive),> 100 µM (inactive),> 100 µM (inactive),> 100 µM (inactive),37.2 µM (inactive),> 100 µM (inactive)
O=C1/C(=C/c2ccc(Cl)cc2)Oc2ccccc21,20.4 µM (inactive),20.4 µM (inactive),> 100 µM (inactive),,29.9 µM (inactive),15.7 µM (inactive),> 100 µM (inactive),,> 100 µM (inactive),23.4 µM (inactive),43.8 µM (inactive),59.4 µM (inactive),36.3 µM (inactive),21.4 µM (inactive),18.7 µM (inactive),22.7 µM (inactive),,2.76 µM (inactive),32.7 µM (inactive),20.6 µM (inactive)
